Results taken from patent US7566718B2, “Amine-linked pyridyl and phenyl substituted piperazine-piperidines with CXCR3 antagonist activity” (Schering Corporation, priority 2005, dated 2009).

Each molecule was assayed against T1, human CXCR3 (N-delta 4) (Homo sapiens, UniProt P49682) (assay: Human CXCR3 (N-delta 4) scintillation proximity assay (SPA), [125I] IP-10 binding to Ba/F3-hCXCR3 membranes). Conditions: IC50 rating; [125I] IP-10 displacement, human CXCR3; read-out: IC50.
T1 construct: CD8 leader (N); Flag tag; expressed in transfected cells; membrane preparation
T1 sequence (P49682 5-368 limits assumed): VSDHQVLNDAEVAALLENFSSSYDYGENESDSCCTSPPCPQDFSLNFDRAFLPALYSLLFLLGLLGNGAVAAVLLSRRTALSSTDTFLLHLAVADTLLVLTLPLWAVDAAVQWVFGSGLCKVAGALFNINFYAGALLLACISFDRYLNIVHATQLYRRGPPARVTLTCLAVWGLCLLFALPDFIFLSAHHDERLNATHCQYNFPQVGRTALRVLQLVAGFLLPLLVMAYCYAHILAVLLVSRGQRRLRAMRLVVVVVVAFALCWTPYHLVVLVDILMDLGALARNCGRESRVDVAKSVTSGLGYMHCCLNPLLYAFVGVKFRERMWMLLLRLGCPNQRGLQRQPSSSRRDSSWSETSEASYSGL
Text: The inventive compounds can readily be evaluated to determine activity at the CXCR3 receptors by known methods, such as, for example, development of a human CXCR3 (N-delta 4) Binding Assay.
The DNA encoding human CXCR3 was cloned by PCR using human genomic DNA (Promega, Madison, Wis.) as a template. The PCR primers were designed based on the published sequence of human orphan receptor GPR9 (1) with incorporated restriction sites, a Kozak consensus sequence, CD8 leader and Flag tag. The PCR product was subcloned into the mammalian expression vector pME18Sneo, a derivative of the SR-alpha expression vector (designated as pME18Sneo-hCXCR3 (N-delta 4).
IL-3-dependent mouse pro-B cells Ba/F3 were transfected by electroporation in 0.4 ml Dulbecco's PBS containing 4×10^6 cells with 20 μg of pME18Sneo-hCXCR3 (N-delta 4) plasmid DNA. Cells were pulsed at 400 Volts, 100 OHMs, 960 μFd. The transfected cells were under selection with 1 mg/ml G418 (Life Technologies, Gaithersburg, Md.). G418-resistant Ba/F3 clones were screened for CXCR3 expression by specific binding of [^125I] IP-10 (NEN Life Science Products, Boston, Mass.).
Ba/F3 cells expressing human CXCR3 (N-delta 4) were pelleted and resuspended in the lysis buffer containing 10 mM HEPES, pH 7.5 and Complete® protease inhibitors (1 tablet per 100 ml) (Boehringer Mannheim, Indianapolis, Ind.) at a cell density of 20×10^6 cells per ml. After 5 minute incubation on ice, cells were transferred to 4639 cell disruption bomb (Parr Instrument, Moline, Ill.) and applied with 1,500 psi of nitrogen for 30 minutes on ice. Large cellular debris was removed by centrifugation at 1,000×g. Cell membrane in the supernatant was sedimented at 100,000×g. The membrane was resuspended in the lysis buffer supplemented with 10% sucrose and stored at −80° C. Total protein concentration of the membrane was determined by BCA method from Pierce (Rockford, Ill.).
Human CXCR3 (N-Delta 4) Scintillation Proximity Assay (SPA):
For each assay point, 2 μg of membrane was preincubated for 1 hr with 300 μg wheat germ agglutinin (WGA) coated SPA beads (Amersham, Arlington Heights, Ill.) in the binding buffer (50 mM HEPES, 1 mM CaCl2, 5 mM MgCl2, 125 mM NaCl, 0.002% NaN3, 1.0% BSA) at room temperature. The beads were spun down, washed once, resuspended in the binding buffer and transferred to a 96-well Isoplate (Wallac, Gaithersburg, Md.). 25 pM of [^125I] IP-10 with tested compounds in a series of titration were added to start the reaction. After 3 hr reaction at room temperature, the amount of [^125I] IP-10 bound to the SPA beads was determined with a Wallac 1450 Microbeta counter.
`CC[C@H]1CN(c2ncc(Nc3c(NCC(N)=O)c(=O)c3=O)cc2Cl)CCN1C1CCN([C@H](CO)c2ccc(Cl)cc2)CC1` [Compound 103] was tested, and the IC50 was 25 to 100 nM. `C[C@@H]1CN(C2CCN(Cc3ccc(Cl)cc3F)CC2)[C@@H](C)CN1c1ncc(Nc2c(NCC(F)(F)F)c(=O)c2=O)cc1Cl` [Compound 104] was tested, and the IC50 was 25 to 100 nM. Work on `CC[C@H]1CN(c2c(F)cc(Nc3c(NC4CC4)c(=O)c3=O)cc2Cl)CCN1C1CCN(Cc2ccc(Cl)cc2F)CC1` [Compound 105] yielded an IC50 of 25 to 100 nM. In the case of `CC[C@H]1CN(c2ncc(Nc3c(OC)c(=O)c3=O)cc2Cl)CCN1C1CCN(Cc2ccc(Cl)cc2F)CC1` [Compound 106], the IC50 is reported as 25 to 100 nM. `CC[C@H]1CN(c2ncc(Nc3c(NC4CCC4)c(=O)c3=O)cc2Cl)CCN1C1CCN(C(=O)c2ccc(Cl)cc2)CC1` [Compound 107] showed an IC50 of 25 to 100 nM. Work on `CC[C@H]1CN(c2ncc(N(C)c3c(NC4CC4)c(=O)c3=O)cc2Cl)CCN1C1CCN(C(CO)c2ccc(Cl)cc2)CC1` (stereo partly drawn) [Compound 108] yielded an IC50 of 25 to 100 nM. For `CC[C@H]1CN(c2ncc(Nc3c(N[C@@H](c4ccc(C)o4)C(C)(C)C)c(=O)c3=O)cc2Cl)CCN1C1CCN([C@H](CO)c2ccc(Cl)cc2)CC1` [Compound 109], the IC50 was 25 to 100 nM. In the case of `CC[C@H]1CN(c2ncc(Nc3c(NCC(=O)OC(C)(C)C)c(=O)c3=O)cc2Cl)CCN1C1CCN([C@H](CO)c2ccc(Cl)cc2)CC1` [Compound 110], the IC50 is reported as 25 to 100 nM. `CC[C@H]1CN(c2ncc(Nc3c(NC4CC4)c(=O)c3=O)cc2Cl)CCN1C1CCN(C(=O)c2ccc(Cl)cc2N)CC1` [Compound 111] showed an IC50 of 25 to 100 nM. With `CC[C@H]1CN(c2ncc(N(C)c3c(NC4CC4)c(=O)c3=O)cc2Cl)CCN1C1CCN([C@H](C(N)=O)c2ccc(Cl)cc2)CC1` [Compound 112] the IC50 was 25 to 100 nM. For `CC(C)CCN1CCC(N2C[C@H](C)N(c3ncc(Nc4c(NCC(F)(F)F)c(=O)c4=O)cc3Cl)C[C@H]2C)CC1` [Compound 113], the IC50 was > 100 nM. `C[C@@H]1CN(c2ncc(Nc3c(NCC(F)(F)F)c(=O)c3=O)cc2Cl)[C@@H](C)CN1C1CCN(Cc2ccc(C#N)cc2)CC1` [Compound 114] was tested, and the IC50 was > 100 nM. In the case of `C[C@@H]1CN(c2ncc(Nc3c(NCC(F)(F)F)c(=O)c3=O)cc2Cl)[C@@H](C)CN1C1CCN(C/C=C/c2ccccc2)CC1` [Compound 115], the IC50 is reported as > 100 nM. In the case of `C[C@@H]1CN(c2ncc(Nc3c(NCC(F)(F)F)c(=O)c3=O)cc2Cl)[C@@H](C)CN1C1CCN(CCCc2ccccc2)CC1` [Compound 116], the IC50 is reported as > 100 nM. `COc1ccc(CN2CCC(N3C[C@H](C)N(c4ncc(Nc5c(NCC(F)(F)F)c(=O)c5=O)cc4Cl)C[C@H]3C)CC2)cc1` [Compound 117] was tested, and the IC50 was > 100 nM. In the case of `C[C@@H]1CN(c2ncc(Nc3c(NCC(F)(F)F)c(=O)c3=O)cc2Cl)[C@@H](C)CN1C1CCN(CCCC2CCCCC2)CC1` [Compound 118], the IC50 is reported as > 100 nM. `C[C@@H]1CN(c2ncc(Nc3c(NCC(F)(F)F)c(=O)c3=O)cc2Cl)[C@@H](C)CN1C1CCN(Cc2cccc3c2OCO3)CC1` [Compound 119] was tested, and the IC50 was > 100 nM. `C[C@@H]1CN(c2ncc(Nc3c(NCC(F)(F)F)c(=O)c3=O)cc2Cl)[C@@H](C)CN1C1CCN(Cc2ccc3c(c2)OCO3)CC1` [Compound 120] was tested, and the IC50 was > 100 nM. `CSc1ccc(CN2CCC(N3C[C@H](C)N(c4ncc(Nc5c(NCC(F)(F)F)c(=O)c5=O)cc4Cl)C[C@H]3C)CC2)cc1` [Compound 121] was tested, and the IC50 was > 100 nM. For `C[C@@H]1CN(c2ncc(NC3C(=O)C(=O)C3NCC(F)(F)F)cc2Cl)[C@@H](C)CN1C1CCN(Cc2ccc3ccccc3c2)CC1` (stereo partly drawn) [Compound 122], the IC50 was > 100 nM. With `COC(=O)c1ccc(CN2CCC(N3C[C@H](C)N(c4ncc(Nc5c(NCC(F)(F)F)c(=O)c5=O)cc4Cl)C[C@H]3C)CC2)cc1` [Compound 123] the IC50 was > 100 nM. With `C[C@@H]1CN(c2ncc(Nc3c(NCC(F)(F)F)c(=O)c3=O)cc2Cl)[C@@H](C)CN1C1CCN(Cc2ccc(Cl)c(Cl)c2)CC1` [Compound 124] the IC50 was > 100 nM. `C[C@@H]1CN(c2ncc(Nc3c(NCC(F)(F)F)c(=O)c3=O)cc2Cl)[C@@H](C)CN1C1CCN(Cc2ccc(Br)cc2)CC1` [Compound 125] was tested, and the IC50 was > 100 nM. In the case of `C[C@@H]1CN(c2ncc(Nc3c(NCC(F)(F)F)c(=O)c3=O)cc2Cl)[C@@H](C)CN1C1CCN(Cc2ccc(C#Cc3ccccc3)cc2)CC1` [Compound 126], the IC50 is reported as > 100 nM. In the case of `CC(C)C1CCC(N2CCC(N3C[C@H](C)N(c4ncc(Nc5c(NCC(F)(F)F)c(=O)c5=O)cc4Cl)C[C@H]3C)CC2)CC1` (stereo partly drawn) [Compound 127], the IC50 is reported as > 100 nM. With `CC[C@H]1CN(c2ncc(Nc3c(N(C)C)c(=O)c3=O)cc2Cl)CCN1C1CCN([C@H](C(=O)NC)c2ccc(Cl)cc2)CC1` [Compound 128] the IC50 was > 100 nM. With `CC[C@H]1CN(c2ncc(Nc3c(NCC(=O)O)c(=O)c3=O)cc2Cl)CCN1C1CCN([C@H](CO)c2ccc(Cl)cc2)CC1` [Compound 129] the IC50 was > 100 nM. In the case of `Cc1cc(Nc2c(NCC(F)(F)F)c(=O)c2=O)cnc1N1C[C@@H](C)N(C2CCN(C(=O)C3CCc4ccccc4C3)CC2)C[C@@H]1C` (stereo partly drawn) [Compound 130], the IC50 is reported as > 100 nM. For `Cc1cc(Nc2c(NCC(F)(F)F)c(=O)c2=O)cnc1N1C[C@@H](C)N(C2CCN(C(=O)c3ccc(C#N)cc3)CC2)C[C@@H]1C` [Compound 131], the IC50 was > 100 nM. In the case of `CCC(C)CN1CCC(N2C[C@H](C)N(c3ncc(Nc4c(NCC(F)(F)F)c(=O)c4=O)cc3Cl)C[C@H]2C)CC1` (stereo partly drawn) [Compound 132], the IC50 is reported as > 100 nM. With `C[C@@H]1CN(c2ncc(Nc3c(NCC(F)(F)F)c(=O)c3=O)cc2Cl)[C@@H](C)CN1C1CCN(Cc2cc3ccccc3o2)CC1` [Compound 133] the IC50 was > 100 nM. `C[C@@H]1CN(c2ncc(Nc3c(NCC(F)(F)F)c(=O)c3=O)cc2Cl)[C@@H](C)CN1C1CCN(Cc2ccc(Cl)cc2Cl)CC1` [Compound 134] was tested, and the IC50 was > 100 nM. In the case of `C[C@@H]1CN(c2ncc(Nc3c(NCC(F)(F)F)c(=O)c3=O)cc2Cl)[C@@H](C)CN1C1CCN(Cc2ccc(-c3ccccc3)cc2)CC1` [Compound 135], the IC50 is reported as > 100 nM. In the case of `C[C@@H]1CN(c2ncc(Nc3c(NCC(F)(F)F)c(=O)c3=O)cc2Cl)[C@@H](C)CN1C1CCN(Cc2cccc(Br)c2)CC1` [Compound 136], the IC50 is reported as > 100 nM. `C[C@@H]1CN(c2ncc(Nc3c(NCC(F)(F)F)c(=O)c3=O)cc2Cl)[C@@H](C)CN1C1CCN(Cc2ccccc2OCC(=O)O)CC1` [Compound 137] was tested, and the IC50 was > 100 nM. With `C[C@@H]1CN(c2ncc(Nc3c(NCC(F)(F)F)c(=O)c3=O)cc2Cl)[C@@H](C)CN1C1CCN(Cc2ccccc2Sc2ccc(Cl)cc2)CC1` [Compound 138] the IC50 was > 100 nM. With `CC[C@H]1CN(c2ncc(Nc3c(NCC(=O)OC(C)(C)C)c(=O)c3=O)cc2Cl)CCN1C1CCN([C@@H](CO)c2ccc(Cl)cc2)CC1` [Compound 139] the IC50 was > 100 nM. In the case of `Cc1cc(OCc2ccccc2)cc(C)c1C(=O)N1CCC(N2C[C@H](C)N(c3ncc(Nc4c(NCC(F)(F)F)c(=O)c4=O)cc3Cl)C[C@H]2C)CC1` [Compound 140], the IC50 is reported as > 100 nM. For `Cc1cc(Nc2c(NCC(F)(F)F)c(=O)c2=O)cnc1N1C[C@@H](C)N(C2CCN(C(=O)c3ccc(Cl)cc3)CC2)C[C@@H]1C` [Compound 141], the IC50 was > 100 nM. With `C[C@@H]1CN(c2ncc(Nc3c(NCC(F)(F)F)c(=O)c3=O)cc2Cl)[C@@H](C)CN1C1CCN(Cc2ccco2)CC1` [Compound 142] the IC50 was > 100 nM. `C[C@@H]1CN(c2ncc(Nc3c(NCC(F)(F)F)c(=O)c3=O)cc2Cl)[C@@H](C)CN1C1CCN(Cc2cccc(C#N)c2)CC1` [Compound 143] was tested, and the IC50 was > 100 nM. In the case of `CCC(C)(C)C1CCC(N2CCC(N3C[C@H](C)N(c4ncc(Nc5c(NCC(F)(F)F)c(=O)c5=O)cc4Cl)C[C@H]3C)CC2)C1` (stereo partly drawn) [Compound 144], the IC50 is reported as > 100 nM.
